Consider three compounds from patent US8871738B2, “Fused bicyclic oxazolidinone CETP inhibitor” (Merck Sharp & Dohme Corp., priority 2011, dated 2014).

Assay [1] has as its target endogenous CETP from serum (Homo sapiens (Human), UniProt P11597). The assay is described as follows: RTA assay in 95% human serum (CETP-catalyzed CE and TG transfer, endogenous CETP). Format: biochemical. The following applies: RTA assay, 95% human serum; read-out: RTA (95% HS).
For assay [2] the following is noted: patients treated with anacetrapib along with baseline statin therapy compared with just a statin; cited from earlier work.

Molecules are shown by their SMILES.

Chain of endogenous CETP from serum (P11597 18-493 limits assumed): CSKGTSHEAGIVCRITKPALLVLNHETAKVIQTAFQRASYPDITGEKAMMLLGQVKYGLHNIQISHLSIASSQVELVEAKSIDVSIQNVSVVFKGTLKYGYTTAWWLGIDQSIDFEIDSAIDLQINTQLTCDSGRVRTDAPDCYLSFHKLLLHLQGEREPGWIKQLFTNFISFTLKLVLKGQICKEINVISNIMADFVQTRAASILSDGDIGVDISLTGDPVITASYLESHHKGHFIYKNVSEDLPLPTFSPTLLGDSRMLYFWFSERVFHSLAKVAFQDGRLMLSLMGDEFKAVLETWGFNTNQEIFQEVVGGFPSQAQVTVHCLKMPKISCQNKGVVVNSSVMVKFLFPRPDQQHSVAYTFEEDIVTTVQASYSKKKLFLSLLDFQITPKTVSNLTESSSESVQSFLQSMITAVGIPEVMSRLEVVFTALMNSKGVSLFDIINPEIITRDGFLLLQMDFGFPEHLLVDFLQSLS

Regarding `COc1ccc(CCc2n[nH]c(=O)o2)cc1-c1ccc(C(F)(F)F)cc1[C@@H]1CCC[C@H]2[C@@H](c3cc(C(F)(F)F)cc(C(F)(F)F)c3)OC(=O)N12` [Example 80, (1R,5S,8aS)-1-[3,5-bis(trifluoromethyl)phenyl]-5-{2′-methoxy-5′-[2-(5-oxo-4,5-dihydro-1,3,4-oxadiazol-2-yl)ethyl]-4-(trifluoromethyl)biphenyl-2-yl}hexahydro[1,3]oxazolo[3,4-a]pyridin-3-one], the IC50 in assay [1] was 942 nM.

On to `COc1ccc(CCc2nnc(N)o2)cc1-c1ccc(C(F)(F)F)cc1[C@@H]1CCC[C@H]2[C@@H](c3cc(C(F)(F)F)cc(C(F)(F)F)c3)OC(=O)N12` [Example 82, (1R,5S,8aS)-5-{5′-[2-(5-amino-1,3,4-oxadiazol-2-yl)ethyl]-2′-methoxy-4-(trifluoromethyl)biphenyl-2-yl}-1-[3,5-bis(trifluoromethyl)phenyl]hexahydro[1,3]oxazolo[3,4-a]pyridin-3-one], for which the IC50 in assay [1] is 1320 nM.

In the case of `COc1cc(F)c(C(C)C)cc1-c1ccc(C(F)(F)F)cc1CN1C(=O)O[C@H](c2cc(C(F)(F)F)cc(C(F)(F)F)c2)[C@@H]1C` [anacetrapib], in assay [2], the “decrease of LDL-C” value is given as 40% and the “increase of HDL-C” value is recorded as 138%.
